# In patent publication US4783481A, “Rodenticides” (priority 1983, dated 1988):
# Columns and labels:
# [1] = Selective depuration of isomer pairs from vole tissue, Example 4; format: in vivo, meadow voles (Microtus penusylvanicus); details: for Amount of isomer pair recovered from the tissue / concentration at 24 h / concentration at 48 h / concentration at 72 h / concentration at 96 h / concentration at 120 h: 10 ppm pellets, 0.54 mg/kg of A-D mixture consumed; for half-life / concentration at 24 h / concentration at 48 h / concentration at 72 h / concentration at 96 h / concentration at 120 h: po; for half-life: 0.54 mg/kg, calculated; for half-life / depuration: vole tissue; for depuration: in words; for concentration at 24 h / concentration at 48 h / concentration at 72 h / concentration at 96 h / concentration at 120 h: vole, tissue, read-out: Amount of isomer pair recovered from the tissue; for Ratio: isomers C and D to isomers A and B
# Method: This Example illustrates the selective depuration of the active ingredient of the invention compositions by meadow voles (Microtus penusylvanicus).
# Fasted wild voles were given pellets containing 10 ppm of mixture (approximately 1:1:1:1 by weight) of isomers A, B, C and D of brodifacoum until they had consumed 0.54 mg of active ingredient per kilogram of body weight. Voles were killed at 0, 1, 2, 3, 4, 5 and 14 days after dosing and the relative amounts of the A, B isomer pair and the C, D isomer pair remain in the vole tissue determined by chromatographic means.
# [2] = Analysis of relative proportions of cis and trans isomers in carcasses of target and non-target species; format: in vivo, foxes, cats, hawks, owls and crows; details: mixed isomers dosed
# From the text: We have now discovered that although there is little to choose between the isomers in terms of their rodenticidal effectiveness there is a significant difference in their persistence in the tissues of nonrodent non-target species which may be exposed to accidental ingestion of brodifacoum.
# Species in which this selective depuration has been noted include scavanging and preditor mammals such as foxes and cats, and birds such as hawks, owls and crows. Thus if non-target species such as these consume the carcasses of rodents which have been killed by the use of the invention compositions they will be able to metabolise the residues of the active ingredient and not be at risk through bioaccumulation of a toxic dose by subsequently consuming further contaminated carcasses.
# cats = assay: in vivo; format: in vivo; details: diet simulating contaminated carcase
# From the text: (§1) The compositions and methods of the invention may be successfully used to control rodents whilst minimising the hazard to non-target species as compared with the use of known compositions. […] This illustrates the improved safety of the invention compositions in the case of accidental ingestion of rodenticide bait by a non-target species.
# [3] = test system: pheasants (Phasianus colchicus); format: in vivo; details: pheasants fed pelleted formulations; vs mixture of all four isomers (approximately 1:1:1:1)
# From the text: as §1
# in vivo = format: in vivo; details: cat, in vivo, po; cats; similar diet with corresponding quantity of all four isomers
# From the text: as §1
Structure (SMILES),Amount of isomer pair recovered from the tissue ([1]; 0 days after dosing) [mg/kg],half-life [1] [h],depuration [1],concentration at 24 h ([1]; 1 day after dosing) [ng/g],concentration at 48 h ([1]; 2 days after dosing) [ng/g],concentration at 72 h ([1]; 3 days after dosing) [ng/g],concentration at 96 h ([1]; 4 days after dosing) [ng/g],concentration at 120 h ([1]; 5 days after dosing) [ng/g],prothrombin time (cats),also measured
"O=c1oc2ccccc2c(O)c1[C@H]1C[C@@H](c2ccc(-c3ccc(Br)cc3)cc2)Cc2ccccc21 (relative stereo) [Isomers A and B, reference compound]",0.15,> 336,retained in the tissue,147,114,114,123,101,–,selective depuration / metabolism [2]: not metabolised at a sufficient rate to avoid the lethal consequences; selective depuration / metabolism ([2]; listed as cis isomer): relatively metabolically more stable
O=c1oc2ccccc2c(O)c1[C@@H]1C[C@@H](c2ccc(-c3ccc(Br)cc3)cc2)Cc2ccccc21 (relative stereo) [Isomers C and D],0.122,~24,rapid depuration,52,24,14,11,5,temporary increase in prothrombin time which returned to normal after a short period,mortality (cats; in words): no mortality; Ratio ([1]; 0 days after dosing): 0.818; Ratio ([1]; 1 day after dosing): 0.354; Ratio ([1]; 2 days after dosing): 0.211; Ratio ([1]; 3 days after dosing): 0.123; Ratio ([1]; 4 days after dosing): 0.089; Ratio ([1]; 5 days after dosing): 0.05; selective depuration / metabolism ([2]; listed as isomers C and D of brodifacoum): rapid depuration; selective depuration / metabolism ([2]; listed as trans isomer): selective metabolism of most or all of the trans isomer; survival rate [3]: much higher survival rate
"O=c1oc2ccccc2c(O)c1C1CC(c2ccc(-c3ccc(Br)cc3)cc2)Cc2ccccc21 (stereo not drawn) [all four brodifacoum isomers, reference compound]",–,–,–,–,–,–,–,–,increased prothrombin times which did not return to normal,mortality (in vivo): 100%
